Data on three molecules can be found in US5204311A, “Ethanediimidic acid bis[(arylalkylidene)hydrazide] color-formers” (Minnesota Mining and Manufacturing Company, priority 1991, dated 1993).

Series [1] can be described thus: Imaging of CB sheet with encapsulated color-former on Ni-coated CF sheet. In kind it is physicochemical. As to conditions: carbonless paper capsules. As to the method:
A precondensate solution was prepared comprising 192 g of formalin, 0.63 g of potassium tetraborate, 72 g of urea, and 328 g of soft water. The formalin was 37% formaldehyde and was added to a 1-liter flask equipped with a stirrer and heating mantle. The potassium tetraborate and urea were then added, and the mixture was heated to 70° C. The reaction was maintained at that temperature for 2.5-3.0 hr. The reaction mixture was then diluted with the water and allowed to cool. The precondensate solution, with about 24% solids, was then ready for use in the encapsulation process.
The precondensate and fill (ethanediimidic acid bis[hydrazide] and carrier or fill solvents) were combined to make capsules according to the following procedure. Sodium chloride (29.54 g) was added to the stirred precondensate solution and the temperature of the solution was adjusted to 20° C. The fill material (215 g) was added and full agitation was begun. After 5 minutes of stirring, 10% hydrochloric acid solution was added over 5 minutes in an amount such that the final pH of the reaction mixture was about 2.8. The reaction mixture was stirred for another 12 minutes. More of the 10% hydrochloric acid solution was added over a period of 12 minutes, in an amount such that the final pH of the solution was about […]. The reaction mixture was stirred at 20° C. for 1 hr, and then at 60° C. for 1-3 hr. The acidic solution was allowed to cool and adjusted to a pH of 7 by addition of concentrated ammonium hydroxide solution (28%). The capsule slurry could then be stored for later use.
The capsule slurry (10 g) was added to 65 g of a 1.5% aqueous sodium alginate solution. The mixture was applied to a coated paper using a bar coater with a 3 mil gap. The coating was allowed to dry at room temperature.
A 2% solution of the compound 1 in the capsule fill solvent of diethyl phthalate, tributyl phosphate, and cyclohexane was encapsulated by the procedure described in Experiment 5 above. A coating mixture of 10.0 g of capsule slurry, 2.5 g of Dow-620 butadiene-styrene latex, and 62.5 g of 1.5% sodium alginate slurry was coated onto paper by the draw down procedure described above.
A 7.5% solution comprising 5.45% N-(5-octanoylamido-2-metylpentyl)dithiooxamide/N-(5-octanoylamido-4-methylpentyl)dithiooxamide (G') mixture and 2.05% N,N'-di(5-octanoylamido-2-methylpentyl)dithiooxamide/N-(5-octanoylamido-2- methylpentyl)-N'-(5-octanoylamido-4-methylpentyl)dithiooxamide/N,N'-(5-octanoylamido-2-methylpentyl)dithiooxamide (G) mixture in the fill solvent mixture of diethyl phthalate, tributyl phosphate, and cyclohexanone was encapsulated by the procedure described above. A coating mixture of 10.0 g of capsule slurry, 2.5 g of Dow 620 styrene-butadiene latex, and 62.5 g of 1.5% sodium alginate solution was coated onto paper by the draw down procedure described in Experiment 5 above.
A blend was prepared of 10 g of the capsule slurry containing compound 1, with 10 g of capsule slurry containing 5.45% N-(5-octanoylamido-2-methylpentyl)dithiooxamide/N-(5-octanoylamido-4-methylpentyl)dithiooxamide (G') mixture and 2.05% N,N'-di(5-octanoylamido-2-methylpentyl)dithiooxamide/N-(5-octanoylamido-2- methylpentyl)-N'-(5-octanoylamido-4-methylpentyl)dithiooxamide/N,N'-di(5-octanoylamido-4-methylpentyl)dithiooxamide (G) mixture. […]

Series [2] in a line: Color (Hunter coordinates) of Ni complex, swabbed on Ni-coated receptor (CF) sheet. In kind it is physicochemical. The arrangement: key to Hunter coordinate a / Hunter Coordinates a: Hunter a: +a red, -a green; key to Hunter coordinate b / Hunter Coordinates b: Hunter b: +b yellow, -b blue. As to conditions: for Chroma: C=(a^2 +b^2)^1/2; for Chroma / Image Color / Hunter Coordinates L / Hunter Coordinates a / Hunter Coordinates b: Ni(II) complex; for Chroma / Image Color: swab concn. 1% (Table 2); for Hunter Coordinates L / Hunter Coordinates a / Hunter Coordinates b: swab concn. 1%, 45°/0° reflectance, illuminant C (Table 2). As to the method: In general, the colors of the complexes, as listed in Table 2 and Experiments 4, 6, and 7 below, were determined by preparing a 1% solution of the color-former or mixture of color-formers in an appropriate solvent. Unless otherwise indicated, the solvent was composed of a mixture of tributyl phosphate (26.5%), diethyl phthalate (17.6%), and cyclohexane (55.9%). The images were formed by applying two stripes of the solution to a substrate coated with a Ni^2+ coated receptor sheet using a cotton tipped applicator swab. Rapid and complete development of the image was achieved by passing the sheet through a hot shoe adjusted to 102° C., making a revolution every 10 seconds. The visually observed colors were measured and recorded.
One method of color measurement is to determine the color's position in color space. One color space system is the Hunter System; see F. W. Billmeyer, Jr., and M. Saltzman, Principles of Color Technology; John Wiley & Sons; New York, N.Y.; Ch. 2 & 3, 1981. In this system three mutually perpendicular axes (L, a, and b) are needed to define a color. "L" (+z axis) represents the lightness or darkness of the image; "a" (x axis) represents the amount of red or green (+a is red, -a is green); and "b" (y axis) represents the amount of yellow or blue (+b is yellow, -b is blue). By measuring a material's L, a, and b values, the color of one sample can be compared with that of other samples. Another value used in the Hunter System is Chroma (C). Chroma is defined by the equation [C=(a^2 +b^2)^1/2 ] and represents the distance of the image coordinates from the origin. The greater the Chroma, the more intense the image. Chroma is used to compare images cf the same hue. Because the color of a sample is also dependent upon the color temperature of the illuminating source, the angle at which the sample is illuminated, the angle at which the illumination is reflected, and the angle of the retina illuminated, these all need to be specified. Many instruments have been developed to record these values. One such instrument is the HunterLab LabScan II. This instrument is capable of automatically determining the L, a, and b values for a given sample, and was used for the following examples.
The L, a, and b color coordinates of the more uniform stripe were measured for 45°/0° reflectance on a HunterLab LabScan II, secondary observer, using illuminant C. The observed (image) color and the Hunter coordinates for Ni^2+ complexes of the yellow color-formers of this invention are given in Table 2.
A 1% solution of the condensation product in the encapsulation fill mix was swabbed onto a carbonless paper CF sheet (sold by the 3M Co. St. Paul, Minn.) with a cotton swab. The reflectance spectra had Hunter coordinates of: […]

Series [3] can be described thus: Solubility in capsule fill solvents. In kind it is physicochemical. The conditions noted are these: for Dye Solubility: 4320 min. As to the method: The encapsulation process requires the color-forming ligand be dissolved in a solvent or mixed solvents, because of the nature of the procedure. Formation of a microcapsule shell as by condensation of urea or melamine with an aldehyde such as formaldehyde or mixtures of aldehydes to form the capsule shell is carried out in an acidic aqueous medium and the color-former solution must be insoluble and unreactive to these reagents for the encapsulation to proceed. Solvents commonly used include tributyl phosphate, diethyl phthalate, and cyclohexane. […] As mentioned above, solubility of yellow color-formers exemplified by structure I in nonaqueous solvents such as those used in the encapsulation process may be increased by substituting alkyl, aryl, aralkyl, alkenyl, or such groups for the hydrogens on the various positions available in the structure I above.
(§1) This color observed on the CF sheet was yellow. […] Solubility in a solvent blend of tributyl phosphate, diethyl phthalate and cyclohexane (capsule solvents for preparing carbonless copy-paper) was >9% by weight. Thus the ligand is eminently suitable for encapsulation. The ligand is not volatile at 71 ° C. overnight.
Solubility in a solvent blend of tributyl phosphate, diethyl phthalate and cyclohexane (capsule solvents for preparing carbonless copy-paper) was 3% by weight. Thus the ligand is eminently suitable for encapsulation. The ligand is not volatile at 71 ° C. overnight.
*THE SOLUBILITY WAS DEEMED PREFERABLE IF IT WAS GREATER THAN 2% IN THE
FILL MIX AT ROOM TEMPERATURE FOR 3 DAYS. THE FILL MIX COMPRISED
TRIBUTYLPHOSPHATE (26.5%); DIETHYLPHTHALATE (17.6%); AND CYCLOHEXANE

Series [4] is described as follows: Volatility: transfer from simulated donor sheet to receptor sheet. In kind it is physicochemical. As to conditions: 71 ° C. overnight. The text has this:
The method utilized in the experiments to both define and evaluate the level of volatility was as follows. A single sheet piece of Grade #10 (20×12 cm) cheesecloth (AF & F., Item No. 588033, American Fiber and Finishing, Inc., Burlington, Mass.) was placed between a simulated donor sheet and a receptor sheet of a carbonless paper construction. The simulated donor sheet comprised a sheet of paper saturated with color-former of structure I, which was used to simulate a CB sheet with ruptured capsules. Pressure was then applied for 24 hours by placing 9 pounds of paper on top of the sheets, to simulate storage conditions of the paper packages. The formation of color on the receptor sheet, due to transfer of volatile color-former thereto, was used as an indication that the particular color-former was less than optimally desirable for carbonless paper constructions, i.e., was volatile. A compound was considered generally to be nonvolatile, within the meaning of the term as used herein to define the present invention and thus to define color-formers most acceptable for use in carbonless image transfer arrangements, if no color was formed after the simulated test was run for about 24 hours at 25° C. In some instances, if no color was formed after storage at room temperature (25° C.), successively higher temperatures were used, as for example 49° C., 60° C., and 71° C. […]

Series [5] can be described thus: Color formation with zinc salts (zinc rosinate). In kind it is physicochemical. As to the method:
as §1
This color observed on the CF sheet was yellow.

Series [6] can be described thus: Stability in concentrated hydrochloric acid. In kind it is physicochemical.
For series [7] the following is noted: background art; cited from earlier work.
[8] abbreviates: 1% solution in encapsulation fill mix swabbed onto 3M CF sheet (Experiments 2, 3).

Bounds are passed on as bounds.

For the molecule `NC(=NN=Cc1ccccc1O)C(N)=NN=Cc1ccccc1O` [Compound 9, Ethanediimidic acid bis[(2-hydroxyphenylmethylene)hydrazide]], the “color developed upon imaging” value in series [1] was “weak and often unacceptable”. For the same molecule, in series [2], the Chroma was 40.7, the “Image Color” value is given as “Yellow”, the “Hunter Coordinates L” value was 84.5 and the “Hunter Coordinates a” value is -9.7. For the same molecule, in series [2], the “Hunter Coordinates b” value stood at 39.5. In addition, in series [3], the “solubility in encapsulation / capsule solvents (in words)” value was “too low in the solvent blend used in many carbonless paper capsules” and the “Dye Solubility” value is under 2.0%.

In the case of `C=CCc1cccc(C=NN=C(N)C(N)=NN=Cc2cccc(CC=C)c2O)c1O` [Compound 16, ethanediimidic acid bis[(3-allylsalicylidene)hydrazide]], the volatility entry in series [4] is recorded as “not volatile”. For the same molecule, the “color formation when reacted with zinc rosinate” value in series [5] is on record as “does not form color”. Further, the “stability in concentrated hydrochloric acid” value in series [6] is listed as “stable”. Further, in series [2] (setting [8]), the “Hunter coordinate L” value came to 82.5, the Hunter coordinate a was -6.64 and the Hunter coordinate b came out at 41.0. The “color observed on the CF sheet” value in series [2] (1% solution swabbed (Experiments 2, 3)) is listed as “yellow”. In addition, in series [2], the Chroma stood at 41.6, the “Image Color” value was “Yellow”, the “Hunter Coordinates L” value stood at 82.5 and the “Hunter Coordinates a” value was -6.6. The “Hunter Coordinates b” value in series [2] is given as 41.0. Further, in series [3], the “Solubility in a solvent blend of tributyl phosphate, diethyl phthalate and cyclohexane” value is 3 % by weight; the “solubility in encapsulation / capsule solvents (in words)” value is listed as “good solubility in capsule solvents”; the “Dye Solubility” value is reported as over 3.0%.

As for `S=C(NCc1ccccc1)C(=S)NCc1ccccc1` [H, N,N'-di(benzyl)dithiooxamide], in series [7], the “image color with metal” value is reported as “blue-purple”.
